Test results: patent publication EP4726029A1, “ADIPOCYTE GROWTH INHIBITOR” (Watanabe Oyster Laboratory Co., Ltd., priority 2023, dated 2024)

What was measured:
Type in all cases: cell-based, mouse
[1] = test system: 3T3-L1 adipocytes; test: Adipogenesis assay with inhibitors of intracellular signaling pathways (AdipoRed Assay Reagent)
Experimental: In yet another experiment, to search for the involvement of intracellular signaling factors, the culture fluid was substituted with a culture fluid containing DMEM, which contained 10% FBS and insulin (10 µg/ml), and a vehicle (1% ethanol) or DHMBA (1 or 10 µM) two days after the differentiation culture. The cells were cultured for another two days in a culture fluid containing signaling inhibitory factors, such as genistein (1 or 10 µM), Wortmannin (10 or 100 nM), PD98059 (1 or 10 µM), or Bay 11-7082 (1 or 10 nM). After the cell culture, the amount of intracellular lipid (triglyceride) formation was quantified using AdipoRed Assay Reagent (Lonza, Walkersville, MD, USA) [19 to 21]. Fluorescence was measured at an excitation of 485 nm and an emission of 570 nm using a 96-well plate reader (µQuant, Bio-Tek Instruments).

[2] = test system: 3T3-L1 adipocytes; test: Adipogenesis assay (AdipoRed Assay Reagent); settings: 1, 10, or 100 µM
Experimental: 3T3-L1 preadipocytes (10^4 cells/0.2 ml per well of a 96-well plate) were cultured for three days, at which point they reached sub-confluence, in DMEM containing 10% BCS and 1% P/S. After the sub-confluence (on day 0), the cells were cultured in a differentiation-inducing culture fluid containing 10% FBS, 1% P/S, 0.5 mM IBMX, and 1 µM dexamethasone with the inclusion of a vehicle (1% ethanol as the final concentration) or DHMBA (0.1, 1, 10, or 100 µM). Two days later, the culture fluid was replaced with a DMEM culture fluid containing insulin (10 µg/ml) without containing 10% FBS or DHMBA, and then, the cells were cultured for another two days.
In another experiment, the cells were cultured in a differentiation culture fluid not containing DHMBA on day 0 of differentiation-inducing culture. Two days later, the culture fluid was replaced with a DMEM culture fluid containing 10% FBS and insulin (10 µg/ml) that contained any of a vehicle (1% ethanol as the final concentration) and DHMBA (0.1, 1, 10, or 100 µM), and then, the cells were cultured for another two days.

[3] = test system: 3T3-L1 preadipocytes; test: Cell death assay (number of cells after sub-confluence); settings: 1000 µM, another two days after sub-confluence (Fig. 2C)
Experimental: In an experiment to measure cell death, 3T3-L1 preadipocytes (1×10^5/ml per well of a 24-well plate) were cultured for three days in a DMEM culture fluid containing 10% BCS and 1% P/S. The cells that reached sub-confluence were cultured for another 48 hours in the presence of a vehicle (1% ethanol as the final concentration) or DHMBA (0.1, 1, 10, 100, or 1000 µM) to examine the variation in the number of cells.
(§1) After the culture, adhering cells were separated from each well by adding an aseptic solution containing 0.05% trypsin and EDTA (0.1 ml per well) in PBS (Thermo Fisher Scientific, Waltham, MA, USA) not containing Ca^2+/Mg^2+ and incubating the cells for two minutes. Afterward, 0.9 ml of DMEM containing 10% FBS was added to each well to prepare cell suspensions. In order to measure the number of living cells, a medium (0.1 ml) containing suspension cells was mixed with 0.1 ml of 0.5% trypan blue staining solution. The living cells were counted under a microscope (Olympus MTV-3) using a cell counter (Line Seiki H-102P, Tokyo, Japan) and a hemocytometer (Sigma-Aldrich, St. Louis, Missouri). Two counts were averaged in each measurement. The number of cells was shown as the number per well of a culture plate.

[4] = test system: 3T3-L1 adipocytes; test: Fat accumulation assay (Oil Red O staining); settings: 0.1, 1, 10, or 100 µM
Experimental: In order to understand the influence of DHMBA on the differentiation of 3T3-L1 preadipocytes, 3T3-L1 preadipocytes (5×10^4 cells/ml per well of a 24-well plate) were cultured for three days, at which point they reached sub-confluence, in 10% bovine calf serum (BCS). After the cells reached sub-confluence (on day 0), the culture fluid was changed to a DMEM differentiation-inducing culture fluid containing 10% FBS, 1% P/S, 0.5 mM IBMX, 1 µM dexamethasone, and insulin (10 µg/ml), and the cells were cultured for another two days. […]
In an additional experiment to understand the effect of DHMBA on the content of lipids in 3T3-L1 adipocytes, a vehicle (1% ethanol as the final concentration) or DHMBA (0.1, 1, 10, or 100 µM) was included in the differentiation-inducing culture fluid to culture the cells from day 0 of the differentiation-inducing culture to four days later. In order to quantify the lipid content (triglycerides) after the cell culture, the cells in the 24-well plate were gently washed twice with PBS and fixed with 4% formaldehyde dissolved in PBS for 30 minutes. […] Furthermore, in order to quantify the lipid content, the Oil Red stain was extracted with isopropanol. […] The eluate was used to measure the absorbance at 510 nm with a spectrophotometer (µQuant, Bio-Tek Instruments).

[5] = test system: 3T3-L1 preadipocytes; test: Number of cells in the differentiation process; settings: 1 or 10 µM
Experimental: In order to understand the influence of DHMBA on the differentiation of 3T3-L1 preadipocytes, 3T3-L1 preadipocytes (5×10^4 cells/ml per well of a 24-well plate) were cultured for three days, at which point they reached sub-confluence, in 10% bovine calf serum (BCS). After the cells reached sub-confluence (on day 0), the culture fluid was changed to a DMEM differentiation-inducing culture fluid containing 10% FBS, 1% P/S, 0.5 mM IBMX, 1 µM dexamethasone, and insulin (10 µg/ml), and the cells were cultured for another two days. Two days later, to promote adipogenesis, the culture fluid was replaced with a fresh differentiation culture fluid of DMEM containing 10% FBS and insulin (10 µg/ml), and the cells were cultured for another two days.
First, to quantify the effect of DHMBA on the number of cells, a vehicle (1% ethanol as the final concentration) or DHMBA (1 or 10 µM) was added to the differentiation-inducing culture fluid on day 0 of differentiation starting culture or after two days. After zero to two days of the differentiation culture or after two to four days of the culture, the number of cells adhered to a culture dish was measured as described in the previous section.

[6] = test system: 3T3-L1 preadipocytes; test: Cell proliferation assay (count of living cells, trypan blue)
Experimental: […] Furthermore, in an experiment to measure cell proliferation, 3T3-L1 preadipocytes (1 × 10^5/ml per well of a 24-well plate) were cultured for three days in a culture fluid containing a vehicle (1% ethanol as the final concentration) or DHMBA (0.1, 1, 10, 100, or 1000 µM).
as §1

[7] = test system: NF-κB p65; test: Western blotting of protein level in adipocytes; settings: DHMBA 10 µM, day 2 to 4 of differentiation (Fig. 7)
Experimental: (§2) 3T3-L1 preadipocytes (1×10^6 cells/100 mm dish used, in 10 ml of culture fluid) were cultured for three days, at which point they reached sub-confluence, in DMEM containing 10% BCS and 1% P/S. Then, the cells were cultured for two days in a DMEM differentiation culture fluid containing 10% FBS, 1% P/S, 0.5 mM IBMX, and 1 µM dexamethasone. […] After the culture, the culture dish was washed three times with cold PBS (10 ml) to eliminate floating cells and dead cells, and adhering cells were scraped using a cell lysis solution containing protease and protein phosphatase inhibitors (Roche Diagnostics, Indianapolis, IN, USA). Next, the cell lysates were centrifuged for 10 minutes at 17,000 × g at 4°C. The concentration of proteins in the supernatant was quantified using Bio-Rad Protein Assay Dye (Bio-Rad Laboratories, Inc., Hercules, CA, USA) with bovine serum albumin as a standard. The extracted protein samples were stored at -80°C until they were used.
(§3) As indicated in the previous invention, a sample of 40 micrograms of supernatant proteins per lane was separated by SDS polyacrylamide gel electrophoresis (SDS-PAGE, 12%) and transferred to a PVDF membrane. Specific antibodies for target proteins, such as PPARγ (C26H12) (catalog No. 2435, rabbit antibody), C/EBPα (catalog No. 2295, rabbit), phosphoinositide 3-kinase p110α (PI3K; catalog No. 4255), Akt (catalog No. 9272, rabbit antibody), mitogen-activated protein kinase (MAPK; catalog No. 4695, rabbit antibody), phosphorylated MAPK (catalog No. […]) 4370, rabbit antibody), mechanistic target of rapamycin (mTOR, catalog No. 4517, mouse antibody), NF-κB p65 (catalog No. 3034, rabbit antibody), and β-actin (catalog No. 3700, rabbit antibody), were obtained from Cell Signaling Technology (Danvers, MA, USA). The PVDF membrane was incubated overnight at 4°C using the above protein antibodies for immunoblotting.
(§4) After the incubation, the PVDF membrane was incubated at room temperature for 60 minutes in a horseradish peroxidase-conjugated secondary antibody (Santa Cruz Biotechnology, Inc., mouse sc-2005 or rabbit sc-2305; 1:1,000 dilution). Protein bands transferred to the PVDF membrane were detected on an X-ray film using a chemiluminescent substrate (catalog No. 34577, Thermo Scientific, Rockford, IL, USA). Four independent experiments were conducted for data, their films were scanned with an Epson Perfection 1660 photo scanner, and the bands were quantified using ImageJ2 software (National Institutes of Health, Bethesda, MD, USA).

[8] = test system: C/EBPα; test: Western blotting of protein level in adipocytes; settings: DHMBA 10 µM, day 2 to 4 of differentiation (Fig. 7)
Experimental: as §2, §3, §4

[9] = test system: PPARγ; test: Western blotting of protein level in adipocytes; settings: DHMBA 10 µM, day 2 to 4 of differentiation (Fig. 7)
Experimental: as §2, §3, §4

[10] = test system: mTOR; test: Western blotting of protein level in adipocytes; settings: DHMBA 10 µM, day 2 to 4 of differentiation (Fig. 7)
Experimental: as §2, §3, §4

[11] = test system: phosphorylated MAPK; test: Western blotting of protein level in adipocytes; settings: DHMBA 10 µM, day 2 to 4 of differentiation (Fig. 7)
Experimental: as §2, §3, §4

[12] = test system: Akt; test: Western blotting of protein level in adipocytes; settings: DHMBA 10 µM, day 2 to 4 of differentiation (Fig. 7)
Experimental: as §2, §3, §4

[13] = test system: PI3 kinase 100α; test: Western blotting of protein level in adipocytes; settings: DHMBA 10 µM, day 2 to 4 of differentiation (Fig. 7)
Experimental: as §2, §3, §4

[14] = test system: MAPK; test: Western blotting of protein level in adipocytes; settings: DHMBA 10 µM, day 2 to 4 of differentiation (Fig. 7)
Experimental: as §2, §3, §4

## COC[C@H]1OC(=O)c2coc3c2[C@@]1(C)C1=C(C3=O)[C@@H]2CCC(=O)[C@@]2(C)C[C@H]1OC(C)=O [Wortmannin, reference compound]
[1]
  adipogenesis: inhibited

## O=c1c(-c2ccc(O)cc2)coc2cc(O)cc(O)c12 [genistein, reference compound]
[1]; genistein 1 or 10 µM alone, two days from day 2 of differentiation (Fig. 6A)
  lipogenesis: not altered

## COc1cccc(-c2cc(=O)c3ccccc3o2)c1N [PD98059, reference compound]
[1]; PD98059 1 or 10 µM (Fig. 6C)
  adipogenesis: inhibited

## COc1c(O)cc(CO)cc1O [DHMBA, 3,5-dihydroxy-4-methoxybenzyl alcohol]
[2]; two to four days after the differentiation, late stage (Fig. 5C)
  adipogenesis: suppression
[2]; zero to four days after the differentiation (Fig. 5A)
  adipogenesis: suppressed
[2]; zero to two days after the differentiation (Fig. 5B)
  adipogenesis: suppression
[3]
  number of cells (cell death): reduced
[4]; on day 0 and after two days of differentiation culture (Fig. 4A)
  lipid accumulation (Oil Red O stained images): reduced
[4]; on day 0 and after two days of differentiation culture (Fig. 4B)
  lipid content in the cells (absorbance at 510 nm): decrease
[5]; day 0 to 2 in culture fluid with differentiation-inducing factors (Fig. 3B)
  number of cells: not varied
[5]; day 2 to 4 in culture fluid containing insulin (Fig. 3C)
  number of cells: not varied
[1]; DHMBA 1 or 10 µM in the presence of Bay 11-7082 1 or 10 nM (Fig. 6D)
  inhibition of adipogenesis: further enhanced
[1]; DHMBA 1 or 10 µM in the presence of PD98059 1 or 10 µM (Fig. 6C)
  inhibition of adipogenesis: further enhanced
[1]; DHMBA 1 or 10 µM in the presence of Wortmannin 10 or 100 nM (Fig. 6B)
  inhibition of adipogenesis: further enhanced
[1]; DHMBA 1 or 10 µM in the presence of genistein (Fig. 6A)
  adipogenesis: inhibited
[6]; DHMBA 10 µM, culture for three to five days (Fig. 2A)
  Cell proliferation: suppressed
[6]; cultured for three days, concentrations ranging from 1 µM to 1000 µM (Fig. 2B)
  Cell proliferation: suppressed
[7]
  level of NF-κB p65: reduced
[8]
  level of C/EBPα: reduced
[9]
  level of PPARγ: reduced
[10]
  level of mTOR: reduction
[11]
  level of phosphorylated MAPK: reduction
[12]
  level of Akt: reduction
[13]
  level of PI3 kinase 100α: reduction
[14]
  level of MAPK: reduction

## Cc1ccc(S(=O)(=O)C=CC#N)cc1 [Bay 11-7082, reference compound]
[1]; Bay 11-7082 1 or 10 nM (Fig. 6D)
  adipogenesis: inhibited
